Measurements: patent publication EP3290412A1, “HIV-1 NUCLEOCAPSID INHIBITORS” (Università degli Studi di Siena, priority 2016, dated 2018)
Where two headings read alike, the source gives them in different places.

Experiments:
[1] = target: T1, full length (1-55) HIV-1 NCp7 (Human immunodeficiency virus type 1 group M subtype B, UniProt P12493); experiment: Electromobility Shift Assay (EMSA), competition for ssDNA binding; conditions: NCp7 300 nM, M13mp18 ssDNA; positive = >25% inhibition at 100µM
T1 construct: recombinant full length (1-55) HIV-1 NCp7 proteins; made in house
Outline: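 Recombinant NL4-3 NCp7 (300 nM in the pre-mix) was combined with compound in 20 mM Tris-HCl pH 7.4, 2 mM MgCl2, 100 mM NaCl, 1 mM DTT, then M13mp18 ssDNA was added for 25 min at 37 °C. Complexes were run on 1% agarose/0.5x TBE and stained with SybrGold. IC50 is the concentration at which bound ssDNA migrated 50% of the bound–unbound distance (triplicate).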

[2] = tested on: HIV-1 reference strain NL4-3; experiment: BiCycle assay (MT-2 then TZM-bl cells); type: cell-based
Outline: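 MT-2 cells were infected with NL4-3 in the presence of five-fold compound dilutions. After 72 h, the supernatant was passed to TZM-bl cells. Two days later, luciferase luminescence was read and IC50 calculated, giving a readout that spans the whole replication cycle.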

[3] = tested on: Peripheral blood mononuclear cells (PBMC); type: cell-based; conditions: human, 7 days
Outline: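 Healthy-donor PBMC stimulated 2 days with 5 µg/mL PHA, then seeded at 1x10^5 cells/well in medium with 20 IU/mL IL-2 and exposed to compound for 7 days. Viability measured by MTS (4 h, OD 490 nm). TD50 interpolated from dose versus percent mortality relative to untreated cells.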

[4] = Human immunodeficiency virus 1, NL43, TZM-bl, read-out: BiCycle IC50 nM
[5] = Human immunodeficiency virus 1, NL43, MT-2 cells 72 hours then TZM-bl cells two days, NL4-3, read-out: BiCycle IC50

C[C@H](NC(=O)c1nc(-c2ccc(C(=O)OCc3ccccc3)cn2)nc(O)c1O)C1CCCCC1 [Compound 70, benzyl (S)-6-(4-((1-cyclohexylethyl)carbamoyl)-5,6-dihydroxypyrimidin-2-yl)nicotinate]
EMSA screening results [1]: Positive (A compound showing >25% inhibition when tested at 100µM concentration is considered as "positive") | IC50 [2, 4]: 190 nM | Proliferation assay PBMC TD50 [3]: 500 nM

C[C@H](NC(=O)c1nc(-c2cc(C(=O)OCc3ccccc3)ccn2)nc(O)c1O)C1CCCCC1 [Compound 71, benzyl (S)-2-(4-((1-cyclohexylethyl)carbamoyl)-5,6-dihydroxypyrimidin-2-yl)isonicotinate]
EMSA screening results [1]: Positive (A compound showing >25% inhibition when tested at 100µM concentration is considered as "positive") | IC50 [2, 4]: 559 nM | Proliferation assay PBMC TD50 [3]: 1420 nM

C[C@H](NC(=O)c1nc(-c2cc3ccccc3cn2)nc(O)c1O)C1CCCCC1 [Compound 72, (S)-N-(1-cyclohexylethyl)-5,6-dihydroxy-2-(isoquinolin-3-yl)pyrimidine-4-carboxamide]
EMSA screening results [1]: Positive (A compound showing >25% inhibition when tested at 100µM concentration is considered as "positive") | IC50 [2, 4]: 382 nM | Proliferation assay PBMC TD50 [3]: 2270 nM

Cc1cc(-c2nc(O)c(O)c(C(=O)N[C@H](C)C3CCCCC3)n2)nc2ccccc12 [Compound 73, (R)-N-(1-cyclohexylethyl)-5,6-dihydroxy-2-(4-methylquinolin-2-yl)pyrimidine-4-carboxamide]
EMSA screening results [1]: Positive (A compound showing >25% inhibition when tested at 100µM concentration is considered as "positive") | IC50 [2, 5]: 358 nM | Proliferation assay PBMC TD50 [3]: 5790 nM

C[C@@H](NC(=O)c1nc(-c2cc(C(=O)NCc3ccccc3)ccn2)nc(O)c1O)C1CCCCC1 [Compound 74, (R)-2-(4-(benzylcarbamoyl)pyridin-2-yl)-N-(1-cyclohexylethyl)-5,6-dihydroxypyrimidine-4-carboxamide]
EMSA screening results [1]: Positive (A compound showing >25% inhibition when tested at 100µM concentration is considered as "positive") | IC50 [2, 5]: 299 nM | Proliferation assay PBMC TD50 [3]: 1680 nM

C[C@H](NC(=O)c1nc(-c2ccc3ccccc3n2)nc(O)c1O)C1CCCCC1 [Compound 75, (S)-N-(1-cyclohexylethyl)-5,6-dihydroxy-2-(quinolin-2-yl)pyrimidine-4-carboxamide]
EMSA screening results [1]: Positive (A compound showing >25% inhibition when tested at 100µM concentration is considered as "positive") | IC50 [2, 4]: 752 nM | Proliferation assay PBMC TD50 [3]: 6900 nM

Cc1ccnc(-c2nc(O)c(O)c(C(=O)NC3(C4CCCCC4)CC3)n2)c1 [Compound 84, N-(1-cyclohexylcyclopropyl)-5,6-dihydroxy-2-(4-methylpyridin-2-yl)pyrimidine-4-carboxamide]
EMSA screening results [1]: Positive (A compound showing >25% inhibition when tested at 100µM concentration is considered as "positive") | IC50 [2, 5]: 1880 nM | Proliferation assay PBMC TD50 [3]: 3470 nM

CC(NC(=O)c1nc(-c2nccc3ccccc23)nc(O)c1O)C1CCC(F)(F)CC1 (stereo not drawn) [Compound 90, N-(1-(4,4-difluorocyclohexyl)ethyl)-5,6-dihydroxy-2-(isoquinolin-1-yl)pyrimidine-4-carboxamide]
EMSA screening results [1]: Positive (A compound showing >25% inhibition when tested at 100µM concentration is considered as "positive") | IC50 [2, 5]: 1790 nM | Proliferation assay PBMC TD50 [3]: 4270 nM
